In brackets after ≈: the same amount, converted by molar mass. Read-outs that look alike come from different tables or passages of the source. Marks after values point to notes of the source that are not given here.
Tests used:
L. donovani amastigotes [1] = settings: cited from earlier work
THP-1 cells [2] = settings: cited from earlier work
[3] = Kinetic aqueous solubility by CLND; format: physicochemical
Outline: (§1)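 Intramacrophage L. donovani amastigotes in differentiated THP-1 cells, run per an earlier protocol but with 96 h compound exposure instead of 72 h. Aqueous solubility also follows a previously described method.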

[4] = parameters: method as in PMID 30962368; settings: cited from earlier work
[5] = parameters: method as in PMID 30962368; settings: dosed in rats at 300 mg/kg; cited from earlier work
LCK = LCK (Homo sapiens, UniProt P06239); assay: Kinase screen LCK; format: biochemical
LCK, sequence (P06239 whole entry): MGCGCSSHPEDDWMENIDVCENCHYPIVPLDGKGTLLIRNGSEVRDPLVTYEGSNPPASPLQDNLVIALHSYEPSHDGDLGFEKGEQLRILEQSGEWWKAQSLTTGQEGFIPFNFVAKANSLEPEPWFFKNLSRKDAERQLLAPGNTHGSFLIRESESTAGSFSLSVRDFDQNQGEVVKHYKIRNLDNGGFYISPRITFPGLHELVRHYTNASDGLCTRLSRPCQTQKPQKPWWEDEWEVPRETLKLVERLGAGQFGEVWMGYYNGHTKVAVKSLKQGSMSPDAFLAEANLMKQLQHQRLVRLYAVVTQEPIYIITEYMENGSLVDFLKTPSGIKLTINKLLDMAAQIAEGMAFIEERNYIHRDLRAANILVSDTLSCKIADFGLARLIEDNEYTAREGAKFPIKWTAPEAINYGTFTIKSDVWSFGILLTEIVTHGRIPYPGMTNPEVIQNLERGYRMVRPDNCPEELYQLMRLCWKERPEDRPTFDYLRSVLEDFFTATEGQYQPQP

PI3Kγ = PI3Kγ (Homo sapiens, UniProt P48736); assay: Kinase screen PI3Kγ; format: biochemical
PI3Kγ, sequence (P48736 whole entry): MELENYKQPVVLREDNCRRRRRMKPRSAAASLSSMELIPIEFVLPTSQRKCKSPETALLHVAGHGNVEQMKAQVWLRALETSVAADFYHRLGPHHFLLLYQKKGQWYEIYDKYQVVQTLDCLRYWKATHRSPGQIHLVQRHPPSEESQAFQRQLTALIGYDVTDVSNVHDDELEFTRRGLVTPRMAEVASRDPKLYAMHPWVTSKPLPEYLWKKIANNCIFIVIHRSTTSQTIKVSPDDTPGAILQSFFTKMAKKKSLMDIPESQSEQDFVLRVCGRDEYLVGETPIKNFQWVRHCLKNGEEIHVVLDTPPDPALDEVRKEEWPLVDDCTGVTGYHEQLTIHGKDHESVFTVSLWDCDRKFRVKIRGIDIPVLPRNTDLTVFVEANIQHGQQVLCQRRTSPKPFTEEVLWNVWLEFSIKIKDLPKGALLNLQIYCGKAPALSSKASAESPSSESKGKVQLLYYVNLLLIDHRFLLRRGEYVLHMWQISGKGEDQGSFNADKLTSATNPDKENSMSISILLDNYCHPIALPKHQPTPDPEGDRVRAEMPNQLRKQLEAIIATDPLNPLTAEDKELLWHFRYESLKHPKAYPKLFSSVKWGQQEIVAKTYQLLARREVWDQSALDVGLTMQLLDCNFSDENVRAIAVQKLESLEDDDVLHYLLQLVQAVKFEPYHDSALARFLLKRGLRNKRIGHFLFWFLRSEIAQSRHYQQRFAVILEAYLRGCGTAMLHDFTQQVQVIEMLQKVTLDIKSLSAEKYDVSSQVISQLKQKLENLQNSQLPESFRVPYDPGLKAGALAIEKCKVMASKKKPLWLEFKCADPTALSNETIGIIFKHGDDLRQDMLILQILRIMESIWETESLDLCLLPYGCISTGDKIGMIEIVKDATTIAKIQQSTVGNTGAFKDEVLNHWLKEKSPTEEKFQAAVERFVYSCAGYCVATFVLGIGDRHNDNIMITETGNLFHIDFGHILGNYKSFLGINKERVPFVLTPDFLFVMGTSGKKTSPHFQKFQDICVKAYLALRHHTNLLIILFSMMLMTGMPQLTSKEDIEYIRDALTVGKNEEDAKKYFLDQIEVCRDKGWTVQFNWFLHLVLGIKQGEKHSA

AuroraB = AuroraB (Homo sapiens, UniProt Q96GD4); assay: Kinase screen AuroraB; format: biochemical
AuroraB, sequence (Q96GD4 whole entry): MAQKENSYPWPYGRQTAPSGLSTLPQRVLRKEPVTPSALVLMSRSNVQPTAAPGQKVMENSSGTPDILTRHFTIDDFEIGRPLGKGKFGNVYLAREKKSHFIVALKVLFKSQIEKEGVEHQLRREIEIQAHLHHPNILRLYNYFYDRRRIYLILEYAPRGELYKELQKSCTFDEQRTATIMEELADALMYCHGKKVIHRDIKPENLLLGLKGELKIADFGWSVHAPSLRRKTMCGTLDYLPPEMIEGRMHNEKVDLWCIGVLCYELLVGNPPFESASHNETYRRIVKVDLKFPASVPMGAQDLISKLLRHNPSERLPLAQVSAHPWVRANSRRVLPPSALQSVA

[6] = Table 6; mouse liver microsomes; cited from earlier work
THP-1 cells [7] = assay: THP-1 host cell read-out of the INMAC assay; format: cell-based; settings: Homo sapiens, THP-1; for EC50: read-out: THP-1 pEC50 (converted); for IC50: supplementary csv, read-out: THP1 pIC50 (converted)
Outline: as §1

[8] = Mouse liver microsomal intrinsic clearance; format: in vitro ADME; settings: for Mouse CLi: mouse liver microsomes; for Cli (mouse, ml/min/g): supplementary csv
[9] = FaSSIF (fasted state simulated intestinal fluid) solubility; format: physicochemical
L. donovani amastigotes [10] = assay: INMAC assay: intramacrophage L. donovani in differentiated THP-1 cells; format: cell-based, Leishmania donovani; settings: Leishmania donovani, THP-1, at least three replicates, SD ≤0.4, read-out: INMAC pEC50 (converted)
Outline: as §1

[11] = Table 6, kinetic, CLND, read-out: Aq. solubility
[12] = supplementary csv, flagged as reported previously in the main tables

For `O=C(Nc1cccc(-c2nc3ncccc3o2)c1)c1ccco1` [Compound 3], the “INMAC pEC50” value (L. donovani amastigotes [1]; Table 3) is given as 5.2 and the “THP-1 pEC50” value (THP-1 cells [2]; Table 3) is given as <4.3.
In the case of `O=C(Nc1ccc(F)c(-c2ccn3c(N4CCOCC4)cnc3n2)c1)N1CCCC1` [Compound 1], the solubility [3, 11] is given as 420 µM (≈ 172 µg/mL), the Ames assay result [4] is given as “negative” and the predicted safety margin [5] is given as “at least 37 fold”. The “INMAC pEC50” value (L. donovani amastigotes [1]; Table 5) was 5.8, the “LdInMac pIC50” value (L. donovani amastigotes [1]; [12]) was 5.8 and the “pIC50 LCK” value (LCK) was < 4.5. For the same compound, the “pIC50 PI3Kγ” value (PI3Kγ) was < 4.5, the “THP-1 pEC50” value (THP-1 cells [2]; Table 5) was <4.3 and the “THP1 pIC50” value (THP-1 cells [2]; [12]) was <4.3. For the same compound, the “pIC50 AuroraB” value (AuroraB) was < 4.5 and the “Mouse CLi” value [6] was 0.8^e mL/min/g.
With `O=C(Nc1ccc(F)c(-c2cc3nc(N4CCOCC4)cnc3o2)c1)N1CCCC1` [Compound 21, N-[4-Fluoro-3-(2-morpholinofuro[2,3-b]pyrazin-6-yl)phenyl]pyrrolidine-1-carboxamide] the solubility ([3]; Table 5, kinetic, CLND, read-out: Aq. solubility) was 70 µM (≈ 28.8 µg/mL), the EC50 (THP-1 cells [7]; Table 5) was > 50.1 µM and the IC50 (THP-1 cells [7]) was > 50.1 µM. The “Mouse CLi” value ([8]; Table 5) was 2.8 mL/min/g, the “Cli (mouse, ml/min/g)” value [8] was 2.8 mL/min/g and the solubility at 4 h ([9]; pH 6.5, Table 5) was 15 µM (≈ 6.17 µg/mL). It also gave an EC50 (L. donovani amastigotes [10]; Table 5) of 0.158 µM.
In the case of `CC(C)c1cnc2nc(-c3cc(NC(=O)N4CCCC4)ccc3F)ccn12` [Compound 30, N-(4-Fluoro-3-(3-isopropylimidazo[1,2-a]pyrimidin-7-yl)phenyl)pyrrolidine-1-carboxamide], the solubility [3, 11] is reported as 231 µM (≈ 84.9 µg/mL), the solubility ([3]; supplementary csv, read-out: Aqueous Solubility) is reported as 240 µM (≈ 88.2 µg/mL) and the EC50 (THP-1 cells [7]; Table 6) is reported as 50.1 µM. The IC50 (THP-1 cells [7]) was 50.1 µM, the “Mouse CLi” value ([8]; Table 6) was 4.6 mL/min/g and the “Cli (mouse, ml/min/g)” value [8] was 4.6 mL/min/g. It also gave a solubility at 4 h ([9]; pH 6.5, Table 6) of 71 µM (≈ 26.1 µg/mL), a solubility ([9]; supplementary csv) of 70 µM (≈ 25.7 µg/mL) and an EC50 (L. donovani amastigotes [10]; Table 6) of 1.26 µM.
